pIC50: −log10 of the molar value. The source made the active and inactive calls. No cut-off for these calls is given here.
Legend:
MGC-803 [1] = assay: Antiproliferative activity against human MGC-803 cells assessed as inhibition of cell growth incubated for 72 hrs by MTT assay; assay type: functional, cell-based; conditions: MGC-803, 72 h
MGC-803 [2] = assay: Induction of apoptosis in human MGC-803 cells assessed as necrotic cells at 1 uM incubated for 48 hrs by Annexin V-FITC/PI staining based flow cytometry analysis (reference value: 0.83%); assay type: functional
MGC-803 [3] = assay: Induction of apoptosis in human MGC-803 cells assessed as early apoptotic cells at 2 uM incubated for 48 hrs by Annexin V-FITC/PI staining based flow cytometry analysis (reference value: 0.30%); assay type: functional
MGC-803 [4] = assay: Induction of apoptosis in human MGC-803 cells assessed as necrotic cells at 4 uM incubated for 48 hrs by Annexin V-FITC/PI staining based flow cytometry analysis (reference value: 0.83%); assay type: functional
MGC-803 [5] = assay: Antiproliferative activity against human MGC-803 cells assessed as inhibition of cell growth incubated for 48 hrs by MTT assay; assay type: functional, cell-based; conditions: MGC-803, 48 h
MGC-803 [6] = assay: Downregulation of FABP3 mRNA level in human MGC-803 cells at 4 uM incubated for 24 hrs by RT-qPCR analysis; assay type: functional, cell-based
MGC-803 [7] = assay: Antitumor activity against human MGC-803 cells xenografted in BALB/c mouse assessed as inhibition of tumor growth at 25 to 50 mg/kg, IG administered for 14 days; assay type: functional, organism-based; conditions: dose 25-50 mg/kg, time 14.0 day
AGS = assay: Antiproliferative activity against human AGS cells assessed as inhibition of cell growth incubated for 48 hrs by MTT assay; assay type: functional, cell-based
MGC-803 [8] = assay: Induction of apoptosis in human MGC-803 cells assessed as late apoptotic cells at 1 uM incubated for 48 hrs by Annexin V-FITC/PI staining based flow cytometry analysis (reference value: 0.98%); assay type: functional
MGC-803 [9] = assay: Induction of apoptosis in human MGC-803 cells assessed as early apoptotic cells at 4 uM incubated for 48 hrs by Annexin V-FITC/PI staining based flow cytometry analysis (reference value: 0.30%); assay type: functional
MGC-803 [10] = assay: Antitumor activity against human MGC-803 cells xenografted in BALB/c mouse assessed as inhibition of tumor growth at 25 mg/kg, IG administered for 14 days; assay type: functional; conditions: MGC-803, po, 336 h, time 14 day, read-out: TGI
MGC-803 [11] = assay: Downregulation of ACAT2 mRNA level in human MGC-803 cells at 4 uM incubated for 24 hrs by RT-qPCR analysis; assay type: functional, cell-based
MGC-803 [12] = assay: Induction of cell cycle arrest in human MGC-803 cells assessed as reduction in CDC25C level incubated for 24 hrs by Western blot analysis; assay type: functional, cell-based; conditions: dose 1-4 µM
MGC-803 [13] = assay: Downregulation of c-FOS mRNA level in human MGC-803 at 4 uM incubated for 24 hrs by RT-qPCR analysis; assay type: functional, cell-based
MGC-803 [14] = assay: Induction of cell cycle arrest in human MGC-803 cells assessed as accumulation of cells at G2/M phase at 1 uM incubated for 48 hrs by PI staining based flow cytometry analysis; assay type: functional
MGC-803 [15] = assay: Induction of apoptosis in human MGC-803 cells assessed as upregulation of Bax expression at 1 to 4 uM incubated for 24 hrs by Western blot analysis; assay type: functional, cell-based; conditions: dose 1-4 µM
MGC-803 [16] = assay: Induction of apoptosis in human MGC-803 cells assessed as upregulation of cleaved caspase-3 expression at 1 to 4 uM incubated for 24 hrs by Western blot analysis; assay type: functional, cell-based; conditions: dose 1-4 µM
MGC-803 [17] = assay: Induction of apoptosis in human MGC-803 cells assessed as early apoptotic cells at 1 uM incubated for 48 hrs by Annexin V-FITC/PI staining based flow cytometry analysis (reference value: 0.30%); assay type: functional
MGC-803 [18] = assay: Induction of cell cycle arrest in human MGC-803 cells assessed as accumulation of cells at G2/M phase at 0.25 uM incubated for 48 hrs by PI staining based flow cytometry analysis; assay type: functional
[19] = Potency index, ratio of andrographolide IC50 to test compound IC50 for antiproliferative activity against human MGC-803 cells assessed as inhibition of cell growth incubated for 24 to 72 hrs by MTT assay; assay type: functional; conditions: time 24-72 hrs
MGC-803 [20] = assay: Induction of cell cycle arrest in human MGC-803 cells assessed as accumulation of cells at G2/M phase at 0.5 uM incubated for 48 hrs by PI staining based flow cytometry analysis; assay type: functional
MGC-803 [21] = assay: Induction of apoptosis in human MGC-803 cells assessed as viable cells at 1 uM incubated for 48 hrs by Annexin V-FITC/PI staining based flow cytometry analysis (reference value: 93.9%); assay type: functional; conditions: read-out: Activity
HGC-27 = assay: Antiproliferative activity against human HGC-27 cells assessed as inhibition of cell growth incubated for 48 hrs by MTT assay; assay type: functional, cell-based; conditions: HGC-27, 48 h
[22] = Toxicity in BALB/c mouse implanted with human MGC-803 cells assessed as body weight loss at 25 to 50 mg/kg, IG; assay type: organism-based; conditions: in vivo, po, dose 25-50 mg/kg
A549 = assay: Antiproliferative activity against human A549 cells assessed as inhibition of cell growth incubated for 24 to 72 hrs by MTT assay; assay type: functional, cell-based; conditions: time 24-72 hrs
MGC-803 [23] = assay: Antiproliferative activity against human MGC-803 cells assessed as reduction in clone areas incubated for 48 hrs […]; assay type: functional, cell-based; conditions: dose <= 2.0 µM
BGC-823 = assay: Antiproliferative activity against human BGC-823 cells assessed as inhibition of cell growth incubated for 48 hrs by MTT assay; assay type: functional, cell-based; conditions: BGC-823, 48 h
MGC-803 [24] = assay: Induction of apoptosis in human MGC-803 cells assessed as necrotic cells at 2 uM incubated for 48 hrs by Annexin V-FITC/PI staining based flow cytometry analysis (reference value: 0.83%); assay type: functional
MCF7 = assay: Antiproliferative activity against human MCF7 cells assessed as inhibition of cell growth incubated for 24 to 72 hrs by MTT assay; assay type: functional, cell-based; conditions: time 24-72 hrs
MGC-803 [25] = assay: Induction of apoptosis in human MGC-803 cells assessed as viable cells at 2 uM incubated for 48 hrs by Annexin V-FITC/PI staining based flow cytometry analysis (reference value: 93.9%); assay type: functional; conditions: read-out: Activity
[26] = Potency index, ratio of 5-fluorouracil IC50 to test compound IC50 for antiproliferative activity against human MGC-803 cells assessed as inhibition of cell growth incubated for 24 to 72 hrs by MTT assay; assay type: functional; conditions: time 24-72 hrs
MGC-803 [27] = assay: Upregulation of E-cadherin expression in human MGC-803 cells at 1 to 4 uM incubated for 48 hrs by Western blot analysis; assay type: functional, cell-based; conditions: dose 1-4 µM
MGC-803 [28] = assay: Lipid-lowering activity in human MGC-803 cells assessed as reduction in lipid droplet accumulation by Oil Red O staining based analysis; assay type: functional, cell-based; conditions: dose 1-4 µM
MGC-803 [29] = assay: Downregulation of c-jun level in human MGC-803 cells at 4 uM incubated for 24 hrs by immunoblotting analysis; assay type: functional, cell-based
MGC-803 [30] = assay: Antiproliferative activity against human MGC-803 cells assessed as inhibition of cell growth incubated for 24 to 72 hrs by MTT assay; assay type: functional, cell-based
PC-3 = assay: Antiproliferative activity against human PC-3 cells assessed as inhibition of cell growth incubated for 24 to 72 hrs by MTT assay; assay type: functional, cell-based; conditions: time 24-72 hrs
MGC-803 [31] = assay: Induction of ROS accumulation in human MGC-803 cells assessed as increase in fluorescence intensity at 1 to 4 uM incubated for 48 min by DCFH-DA and PI staining based microscopic analysis; assay type: functional, cell-based; conditions: dose 1-4 µM

## C=C1CC[C@@H]2[C@](C)(CO)[C@H](O)CC[C@@]2(C)[C@@H]1/C=C/C1=CC(=C/c2ccc(C)cc2)/NC1=O
MGC-803 [1]
  pIC50: 5.54
MGC-803 [2]
  Activity: 12.6%
MGC-803 [3]
  Activity: 5.47%
MGC-803 [4]
  Activity: 4.54%
MGC-803 [5]
  pIC50: 5.45
MGC-803 [6]
  Activity: Active
MGC-803 [7]
  TGI: Active
AGS
  pIC50: 5.28
MGC-803 [8]
  Activity: 15.1%
MGC-803 [9]
  Activity: 12.4%
MGC-803 [10]
  inhibition in vivo at 25 mg/kg: 20%
MGC-803 [11]
  Activity: Active
MGC-803 [12]
  Activity: Dose-dependent-effect
MGC-803 [13]
  Activity: Active
MGC-803 [14]
  Activity: 25.4%
MGC-803 [15]
  Activity: Active
MGC-803 [16]
  Activity: Active
MGC-803 [17]
  Activity: 0.44%
MGC-803 [18]
  Activity: 9.59%
[19]
  Ratio IC50: ~14
MGC-803 [20]
  Activity: 14.5%
MGC-803 [21]
  viability at 1 µM: 71.9%
HGC-27
  pIC50: 5.19
[22]
  Activity: Non-toxic
A549
  Activity: inactive
MGC-803 [23]
  Activity: Dose-dependent-effect
BGC-823
  pIC50: 4.42
MGC-803 [24]
  Activity: 12.9%
MCF7
  Activity: inactive
MGC-803 [25]
  viability at 2 µM: 40.2%
[26]
  Ratio IC50: ~8
MGC-803 [27]
  Activity: Active
MGC-803 [28]
  Activity: Dose-dependent-effect
MGC-803 [29]
  Activity: Active
MGC-803 [30]
  pIC50: 5.64
MGC-803 [30]; time 24-72 hrs
  Activity: Dose-dependent-effect
PC-3
  Activity: inactive
MGC-803 [31]
  Activity: Active

— ChEMBL document CHEMBL6153084, “The development of α, β-unsaturated lactam-based andrographolide derivatives as anti-gastric cancer agents with the ability of inhibiting the ERK/c-Fos/Jun pathway” (Eur J Med Chem, 2025)
